According to patent publication US20230390298A1, “METHOD AND COMPOSITIONS FOR USE IN PROVIDING MALE CONTRACEPTION” (Eppin Pharma, Inc., priority 2022, published 2023):

Experiments:
human sperm motility = test: live sperm computer-assisted sperm analysis (CASA) assay; type: cell-based; settings: for inhibitory activity in the CASA sperm motility assay: human spermatozoa
Protocol: In another embodiment, a computer-assisted sperm analysis (CASA) can be used as a live cell compound screen for determining the effect of compounds on human sperm motility. Additionally, to facilitate the EC50 evaluation of compounds using different ejaculates, reducing inter-assay variation due to differences in sperm quality in different semen samples, an index of relative motility inhibition (RMI) was developed. This is calculated as: RMI=[% motility*VSL]; percentage of motile sperm (% motility) or the percentage of progressively motile sperm (% progressive motility, RPMI) multiplied by the straight-line velocity (VSL); the average velocity measured in a straight line from the beginning to the end of a track in μm/sec. Normalized RMI can be calculated by dividing the RMI of each experimental condition by its respective DMSO control.
The live-sperm Computer Assisted Sperm Analysis (CASA) Assays were done as follows.
Human semen samples were obtained from the Department of Obstetrics and Gynecology, University of North Carolina Memorial Hospital, Chapel Hill, NC. […] Semen samples were allowed to liquefy for 30 minutes and subjected to standard semen analysis to determine acceptability before freezing. All samples were stored in liquid nitrogen, and de-identified by the Department of Obstetrics and Gynecology, University of North Carolina Memorial Hospital, Chapel Hill, NC before further processing. A density gradient (SpermCare catalog number 2221 and 2222, InvitroCare Inc., Frederick MD) was used to prepare spermatozoa for further analysis. At least 3 independent experiments were done per assay, each using several pooled samples from a single donor. Briefly sperm were washed after the density gradient with EP buffer-0.4% human serum albumin and resuspended in the same buffer for compound treatments. Sperm were diluted to 5×10^6/mL in 12×75 mm glass tubes with the appropriate treatment and incubated at 37° C. in 5% CO2. For CASA analysis, sperm were loaded onto slides (CellVison 4 chamber (20 μM), catalog number CV-1020-4CV, Fertility Technology Resources, Murphy NC) and warmed to 37° C. before analysis. Videos of sperm motility were collected using a Nikon ECLIPSE TS2-FL inverted microscope with 10× eyepiece and a 10× negative phase contrast objective and a Basler high speed camera (1280×1024 px, 200 fps, USB 3, CMOS). AVI Videos were analyzed using OpenCASA software (version 2). Units for CASA parameters are as follows: VAP (average path velocity), VSL (straight line velocity), and VCL (curvilinear velocity)=μm/sec (microns/sec); ALH (lateral head amplitude)=μm; BCF (beat cross-frequency)=Hz. The relative mobility index (RMI) is a measure of the effect of compound on sperm and is calculated as the VSL x % normal motility and normalized to the appropriate DMSO control.

recombinant human EPPIN = molecular target: T1, recombinant human EPPIN (Homo sapiens, UniProt O95925); test: Epitope ALPHA (AlphaScreen) assay, EPPIN / anti-EPPIN antibody binding; settings: EPPIN on donor beads, anti-EPPIN antibody on acceptor beads
T1 construct: made in house; host or cells: E. coli strain OrigamiB-DE3-pLysS
Source text: Two assays for high throughput screening (HTS) of compounds have been established and validated. In one embodiment, these assays are based on an adaptation of the AlphaScreen™ assay developed by PerkinElmer (Waltham, MA). In the AlphaScreen™ (amplified luminescent proximity homogeneous assay) assay donor and acceptor beads (˜200 nm) are employed to hold interacting protein molecules. When the interacting protein molecules bind (for example EPPIN {on the donor bead} and anti-EPPIN {on the acceptor bead}), single state oxygen molecules diffuse from the donor bead to the acceptor bead (˜4 μsec) and fluorophores subsequently emit light at 520-620 nm. In the primary compound screen, histidine-tagged recombinant human EPPIN is attached to NTA-donor beads and anti-EPPIN (S21C; against the EPPIN C-terminal domain) is attached to protein A-acceptor beads. This epitope specific assay gives strong and stable binding between EPPIN and the antibody.
Briefly, recombinant histidine-tagged recombinant EPPIN was pre-incubated with Ni-NTA chelate donor beads (catalog number AS101, Perkin Elmer, Waltham MA) and anti-Eppin 007 or anti-Eppin Q20E antibody was pre-incubated with Protein A acceptor beads (catalog number 6760136, Perkin Elmer, Waltham MA) for 30 minutes. Equal volumes of donor and acceptor bead mixtures were pipetted into white opaque 384-well microplates (OptiPlate-384; PerkinElmer, Waltham, MA) in a final volume of 30 μL. Plates were covered with top seal and transferred to a Synergy HTS Multiplatform automated plate reader (Biotek, Winooski, VT). After shaking for 2 min, plates were read with an excitation 680/30 filter, an emission 570/100 filter and data acquired using Gen5 software (Biotek). Each set of samples was pipetted in 4 replicates. The final concentration of assay components was 58 nM EPPIN, 2 nM anti-Eppin 007 or Q20E antibody, 5 μg/ml donor beads and 10 μg/ml acceptor beads in 0.1M Tris pH=8, 0.1% bovine serum albumin and 0.01% Tween-20. Negative controls were performed under the same conditions in the absence of EPPIN or antibody and in the presence of beads only. The antibody 007 used in this assay binds the same epitope that binds the EP055 compound so the two entities compete for binding to EPPIN. Q20E binds the n-terminal part of EPPIN.
Non-specific interactions of compound with assay components were measured at the same time with the IgG detection kit ([…] biotinylated rabbit IgG) to generate the bead interaction: 10 μg/ml donor and acceptor beads. (catalog number 6760617C, Perkin Elmer).
A specific signal for each time point was calculated by subtracting the background signal (obtained in the absence of Eppin) from its respective total signal. EC50 values for the binding of EPPIN to specific compounds were calculated by non-linear regression curve fitting using the specific signal obtained after 16 h of incubation using GraphPad Prism version 6.00 for Windows (GraphPad Software, La Jolla California USA, www.graphpad.com).

T1 sequence (O95925 22-133): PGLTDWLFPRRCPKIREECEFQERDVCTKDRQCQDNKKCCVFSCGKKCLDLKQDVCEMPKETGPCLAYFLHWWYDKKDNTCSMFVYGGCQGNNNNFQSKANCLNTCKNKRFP

Molecule | inhibitory activity in the CASA sperm motility assay (human sperm motility) | inhibitory activity in the epitope ALPHA assay (recombinant human EPPIN) | EC50 (human sperm motility; inhibiting sperm motility and impairing proper function, read-out: calculated EC50 value for inhibiting sperm motility) [µM]
COC(=O)NNc1nc(Nc2ccc(NC(C)=O)c(O)c2)nc(SCCC(=O)O)n1 [EP083, 3-((4-((4-acetamido-3-hydroxyphenyl)amino)-6-(2-(methoxycarbonyl)hydrazineyl)-1,3,5-triazin-2-yl)thio)propanoic acid] | inhibitory activity | inhibitory activity | 
COC(=O)CCSc1cc(NNC(=O)OC)nc(Cc2ccc(NC(C)=O)c(O)c2)n1 [EP100, methyl 3-({2-[(4-acetamido-3-hydroxyphenyl)methyl]-6-{[(methoxycarbonyl)amino]amino}pyrimidin-4-yl}sulfanyl)propanoate] | inhibitory activity | inhibitory activity | 
COC(=O)CCSc1nc(NNC(=O)OC)nc(Nc2ccc(NC(C)=O)c(O)c2)n1 [EP082, methyl 3-({4-[(4-acetamido-3-hydroxyphenyl)amino]-6-{[(methoxycarbonyl)amino]amino}-1,3,5-triazin-2-yl}sulfanyl)propanoate] | inhibitory activity | inhibitory activity | 
CO/N=C/c1ccc(Cc2nc(NNC(=O)OC)cc(SCCC(=O)OC)n2)cc1O [EP102, methyl 3-{[2-({3-hydroxy-4-[(1E)-(methoxyimino)methyl]phenyl}methyl)-6-{[(methoxycarbonyl)amino]amino}pyrimidin-4-yl]sulfanyl}propanoate] | inhibitory activity | inhibitory activity | 
CO/N=C/c1ccc(Cc2cc(NNC(=O)OC)cc(SCCC(=O)O)n2)cc1O [EP104, 3-{[6-({3-hydroxy-4-[(1E)-(methoxyimino)methyl]phenyl}methyl)-4-{[(methoxycarbonyl)amino]amino}pyridin-2-yl]sulfanyl}propanoic acid] | inhibitory activity | inhibitory activity | 
COC(=O)CCCSc1nc(NNC(=O)OC)nc(Nc2ccc(NC(C)=O)c(O)c2)n1 [EP098, methyl 4-({4-[(4-acetamido-3-hydroxyphenyl)amino]-6-{[(methoxycarbonyl)amino]amino}-1,3,5-triazin-2-yl}sulfanyl)butanoate] | inhibitory activity | inhibitory activity | 
COC(=O)NNc1nc(Nc2ccc(NC(C)=O)c(O)c2)nc(SCCCC(=O)O)n1 [EP096, 4-((4-((4-acetamido-3-hydroxyphenyl)amino)-6-(2(methoxycarbonyl)hydrazineyl)-1,3,5-triazin-2-yl)thio)butanoic acid] | inhibitory activity | inhibitory activity | 
CO/N=C/c1ccc(Cc2cc(NNC(=O)OC)cc(SCCC(=O)OC)n2)cc1O [EP103, methyl 3-{[6-({3-hydroxy-4-[(1E)-(methoxyimino)methyl]phenyl}methyl)-4-{[(methoxycarbonyl)amino]amino}pyridin-2-yl]sulfanyl}propanoate] | inhibitory activity | inhibitory activity | 
COC(=O)CCSc1cc(NNC(=O)OC)cc(Cc2ccc(CC(C)=O)c(O)c2)n1 [EP101, methyl 3-[(6-{[3-hydroxy-4-(2-oxopropyl)phenyl]methyl}-4-{[(methoxycarbonyl)amino]amino}pyridin-2-yl)sulfanyl]propanoate] | inhibitory activity | inhibitory activity | 
COC(=O)NNc1nc(Nc2ccc(NC(C)=O)c(O)c2)nc(SCCC(C)=O)n1 [EP091, methyl 2-(4-((4-acetamido-3-hydroxyphenyl)amino)-6-((3-oxobutyl)thio)-1,3,5-triazin-2-yl) hydrazine-1-carboxylate] | inhibitory activity | inhibitory activity | 
SEMG1: semenogelin, seminal vesicle protein that binds EPPIN on sperm and inhibits progressive motility (protein, UniProt P04279 24-462, looked up) Semenogelin-1: QKGGSKGRLPSEFSQFPHGQKGQHYSGQKGKQQTESKGSFSIQYTYHVDANDHDQSRKSQQYDLNALHKTTKSQRHLGGSQQLLHNKQEGRDHDKSKGHFHRVVIHHKGGKAHRGTQNPSQDQGNSPSGKGISSQYSNTEERLWVHGLSKEQTSVSGAQKGRKQGGSQSSYVLQTEELVANKQQRETKNSHQNKGHYQNVVEVREEHSSKVQTSLCPAHQDKLQHGSKDIFSTQDELLVYNKNQHQTKNLNQDQQHGRKANKISYQSSSTEERRLHYGENGVQKDVSQSSIYSQTEEKAQGKSQKQITIPSQEQEHSQKANKISYQSSSTEERRLHYGENGVQKDVSQRSIYSQTEKLVAGKSQIQAPNPKQEPWHGENAKGESGQSTNREQDLLSHEQKGRHQHGSHGGLDIVIIEQEDDSDRHLAQHLNNDRNPLFT |  |  | 8.8
